Experimental data: patent US9624167B2, “N-(4-hydroxy-4-methyl-cyclohexyl)-4-phenyl-benzenesulfonamides and N-(4-hydroxy-4-methyl-cyclohexyl)-4-(2-pyridyl)benzenesulfonamides and their therapeutic use” (PIMCO 2664 LIMITED, priority 2013, dated 2017)
Marks after values point to notes of the source that are not given here.

Assays:
[1] = system: TK6 human lymphoblastoid cell line; assay: GreenScreen HC cytotoxicity (propidium iodide uptake); type: cell-based; conditions: for Cytotoxicity, LEC, 48 h, −S9: absence of S9 fraction; for Cytotoxicity, LEC, 48 h, +S9: presence of S9 fraction; for Cytotoxicity, LEC, 24 h: lowest effective concentration for loss of cell viability
Method: GreenScreen HC is a mammalian cell-based assay for measuring the genotoxicity and cytotoxicity of chemical compounds and mixtures.
Cytotoxicity is measured in the GreenScreen assay alongside genotoxicity and the results of the cytotoxicity assessment are used to normalise the genotoxicity measurements as described above.
In the GreenScreen HC assay, cell viability is assessed using a propidium iodide uptake assay. Propidium iodide is an intercalating agent and a fluorescent molecule that can be used to stain cells. It is commonly used to quantitatively assess DNA content to evaluate cell viability or DNA content in cell cycle analysis and can be used to differentiate necrotic, apoptotic and normal cells (see, e.g., Dengler et al., 1995, Anticancer Drugs, Vol. 6, No. 4, pp. 522-532). Exposure to a cytotoxic compound increases the uptake of propidium iodide, which is monitored by optical absorbance and is proportional to […]. Cytotoxic compounds are those that show an observed decrease in relative population survival below a significance threshold set at 90% compared to vehicle-treated control, at one or more test concentrations.
A dilution series of each test compound is generated in parallel in a 96-well, black microplate with an optically clear base. A standard genotoxic compound (methyl methanesulfonate, MMS) is added as an intra-plate quality control check. The plates are analysed at 24 hour and 48 hour time points using a microplate reader, which provides measurements of light absorbance and fluorescence for cells and solutions in the microplates wells.
In addition to measurements of cell viability and genotoxicity described above, the GreenScreen assay incorporates an assessment of the effects of metabolic activation in the assay, the “GreenScreen HC S9 assay”. To accomplish this, the cells are incubated both in the presence of and absence of the post-mitochondrial supernatant liver extract (known as “S9”). S9 is routinely used in genetic toxicology to supplement the test cells with mammalian phase I metabolism. To assess metabolic activation, compounds are incubated with the TK6 strain in the presence of 1% v/v S9 fraction mix for 3 hours with a subsequent 45 hour recovery time. After the recovery period, the GFP fluorescence signal and cell viability (assessed by propidium iodide uptake) are measured using a flow cytometer. Cyclophosphamide, a commonly used control in genotoxicity studies utilising metabolic activation, is used as the positive control in the assay. In the GreenScreen HC S9 assay, genotoxicity is evaluated by induction in GFP expression quantified using the mean sample fluorescence and cytotoxicity using the propidium iodide uptake assay described above. The statistically defined threshold for a positive genotoxicity result is 1.3, i.e. 30% induction over and above the baseline for the vehicle-treated control and the result is reported as positive or negative. Cytotoxic compounds are those that show an observed decrease in relative population survival below a significance threshold set at 90% compared to vehicle-treated control, at one or more test concentrations.
Stably transfected reporter cell lines were derived from the p53-competent human lymphoblastoid TK6 cell line. The reporter cell line carries an episomally replicating plasmid bearing the upstream promoter region and other regulatory sequences of the human GADD45a gene linked to a human optimised Green Fluorescent Protein (GFP) gene. The control cell line carries an identical plasmid except for the removal of 4 base pairs at the start of the EGFP gene, such that GFP is not produced. Both plasmids also carry a gene conferring resistance to hygromycin B to the cell line, allowing continued selection for plasmid presence (200 μg/mL hygromycin B; Invitrogen Corporation, Carlsbad, Calif.). […]

hERG = molecular target: T1, hERG (Homo sapiens, UniProt Q12809); assay: hERG Ion Channel Assay (Q-patch, hERG-CHO cells); type: cell-based; conditions: human, CHO cells stably transfected with hERG (hERG-CHO), pH 7.4, 30 μM, hERG tail current
T1 construct: expressed in transfected cells; host or cells: Chinese Hamster Ovary cells (hERG-CHO), stably transfected
Method: The activity of the compounds against the hERG ion channel was tested. The assay was conducted using the automated path-clamp, Q-patch method using stably transfected Chinese Hamster Ovary cells (hERG-CHO). hERG-CHO cells were cultured in F-12 Kaighn's Nutrient Mixture medium (Invitrogen)+10% FBS at 37° C. for 1-3 days. Cells were kept at 30° C. for 24 to 48 hours prior to patch clamping in order to increase the hERG current amplitude. Subsequently, the cells were harvested by trypsinisation, and kept in Serum Free Medium (SFM) in the Q-patch cell preparation state for up to 6 hours at room temperature before being washed and re-suspended in extracellular solution and applied to the patch clamp sites for data recording.
Patch-clamp voltage protocol: After whole cell configuration was achieved, the cell was held at −80 mV. A 50 millisecond pulse to −40 mV was delivered to measure the leaking current, which was subtracted from the tail current on-line. Then the cell was depolarized to +20 mV for 2 seconds, followed by a one second pulse to −40 mV to reveal hERG tail current. This paradigm was delivered once every 5 seconds to monitor the current amplitude.
Extracellular solution: 137 mM NaCl, 4 mM KCl, 1.8 mM CaCl2, 1 mM MgCl2, 10 mM D(+)-glucose, 10 mM HePES buffer (pH adjusted to 7.4 with NaOH).
After the whole cell configuration was achieved, the extracellular solution (control) was applied first and the cell was stabilized for 2 minutes in extracellular solution. The test compound was then applied from low concentrations to high concentrations cumulatively. The cell was incubated with each test concentration for 5 minutes. During each incubation, the cell was repetitively stimulated using the voltage protocol described above, and the tail current amplitude was continuously monitored.
• (1) Peak tail current >100 pA in control. • (2) Initial run-down <30% and the run-down stops before first application of the test compound. • (3) Leak currents <50% of the control peak tail currents at any time. • (4) rs<20 MΩ throughout the experiment.
The degree of inhibition (%) was obtained by measuring the tail current amplitude, induced by a one second test pulse to −40 mV after a two second pulse to +20 mV, before and after incubation with the test compound. The difference in current was normalized to control and multiplied by 100 in order to obtain the percent inhibition.
Concentration (log) response curves were fitted to a logistic equation (three parameters assuming complete block of the current at very high test compound concentrations) to generate estimates of the 50% inhibitory concentration (IC50). The concentration-response relationship of each compound was constructed from the percentage reductions of current amplitude by sequential concentrations.

[2] = Rodent pharmacokinetics study; type: in vivo, Sprague-Dawley rats; conditions: rat; for i.v. AUC: dosed at 0.5 mg/kg intravenously (*)

T1 sequence (Q12809 whole entry): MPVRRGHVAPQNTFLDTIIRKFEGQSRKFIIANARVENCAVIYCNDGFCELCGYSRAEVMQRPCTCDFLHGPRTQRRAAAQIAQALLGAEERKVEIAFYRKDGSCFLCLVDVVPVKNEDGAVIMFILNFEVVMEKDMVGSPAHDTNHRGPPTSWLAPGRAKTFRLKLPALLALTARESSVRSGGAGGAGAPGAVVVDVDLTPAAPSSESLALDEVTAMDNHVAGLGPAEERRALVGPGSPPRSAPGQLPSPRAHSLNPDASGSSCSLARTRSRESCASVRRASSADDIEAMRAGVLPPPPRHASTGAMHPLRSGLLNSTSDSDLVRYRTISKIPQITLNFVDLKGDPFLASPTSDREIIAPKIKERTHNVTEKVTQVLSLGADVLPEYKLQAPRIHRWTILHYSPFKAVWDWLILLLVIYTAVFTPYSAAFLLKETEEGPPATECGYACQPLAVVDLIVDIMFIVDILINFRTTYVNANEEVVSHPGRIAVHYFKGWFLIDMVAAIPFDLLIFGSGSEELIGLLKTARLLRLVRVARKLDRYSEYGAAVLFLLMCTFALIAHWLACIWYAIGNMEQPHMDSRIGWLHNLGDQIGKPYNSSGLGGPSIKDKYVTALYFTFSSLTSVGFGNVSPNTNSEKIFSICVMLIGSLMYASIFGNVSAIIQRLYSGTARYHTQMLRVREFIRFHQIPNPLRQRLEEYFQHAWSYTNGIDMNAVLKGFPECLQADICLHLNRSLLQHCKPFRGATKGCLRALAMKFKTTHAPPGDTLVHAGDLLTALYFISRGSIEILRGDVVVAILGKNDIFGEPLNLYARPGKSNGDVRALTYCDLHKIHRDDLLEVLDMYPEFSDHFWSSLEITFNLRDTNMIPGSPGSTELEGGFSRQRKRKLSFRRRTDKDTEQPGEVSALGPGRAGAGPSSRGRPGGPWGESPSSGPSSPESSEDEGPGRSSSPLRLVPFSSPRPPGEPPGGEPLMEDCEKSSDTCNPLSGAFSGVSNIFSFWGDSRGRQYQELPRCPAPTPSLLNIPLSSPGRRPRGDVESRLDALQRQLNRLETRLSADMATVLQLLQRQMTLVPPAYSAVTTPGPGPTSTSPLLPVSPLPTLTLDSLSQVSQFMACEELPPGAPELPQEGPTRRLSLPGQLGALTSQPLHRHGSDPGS

Row | Structure (SMILES) | Cytotoxicity, LEC, 48 h, −S9 [1] | Cytotoxicity, LEC, 48 h, +S9 [1] | Cytotoxicity, LEC, 24 h [1] | inhibition at 5 min, 30 µM (hERG) | p.o. AUC ([2]; dosed at 10 mg/kg orally (‡)) | i.v. AUC [2]
1 | Cc1cc(S(=O)(=O)NC2CCC(C)(O)CC2)ccc1-c1ccc(F)cc1F (single isomer, unassigned) [REF001, reference compound] | 0.039 µM | 0.63 µM | 0.039 µM | 60% | 4766 ng·min/mL | –
2 | C[C@]1(O)CC[C@H](NS(=O)(=O)c2ccc(-c3ccc(Cl)cc3C#N)cc2)CC1 [HMC-C-01-A, 4′-Chloro-2′-cyano-N-((1r,4r)-4-hydroxy-4-methylcyclohexyl)biphenyl-4-sulfonamide] | 0.12 µM | 60 µM | 0.47 µM | 79% | – | –
3 | C[C@]1(O)CC[C@@H](NS(=O)(=O)c2ccc(-c3ccc(F)cc3C(F)(F)F)cc2)CC1 [HMC-C-02-B, 4′-Fluoro-N-((1s,4s)-4-hydroxy-4-methylcyclohexyl)-2′-(trifluoromethyl)-[1,1′-biphenyl]-4-sulfonamide] | – | – | – | 94% | – | –
4 | C[C@]1(O)CC[C@@H](NS(=O)(=O)c2ccc(-c3ncc(F)cc3F)c(F)c2)CC1 [HMC-N-01-B, 4-(3,5-Difluoropyridin-2-yl)-3-fluoro-N-((1s,4s)-4-hydroxy-4-methylcyclohexyl)benzenesulfonamide] | 0.05 µM | 5.85 µM | 0.01 µM | 27% | – | –
5 | O=S(=O)(N[C@H]1CC[C@H](O)CC1)c1ccc(-c2ncc(Cl)cc2Cl)cc1 [ABD836, reference compound] | 0.01 µM | 40 µM | 0.04 µM | 50% | – | –
6 | C[C@]1(O)CC[C@H](NS(=O)(=O)c2ccc(-c3ccc(F)cc3F)cc2)CC1 [ABD900, reference compound] | 0.07 µM | 74.1 µM | 0.29 µM | 51% | – | –
7 | C[C@]1(O)CC[C@H](NS(=O)(=O)c2ccc(-c3ccc(F)cc3C(F)(F)F)cc2)CC1 [HMC-C-02-A, 4′-Fluoro-N-((1r,4r)-4-hydroxy-4-methylcyclohexyl)-2′-(trifluoromethyl)biphenyl-4-sulfonamide] | 60 µM | 120 µM | >1000 µM | 57% | – | –
8 | C[C@]1(O)CC[C@@H](NS(=O)(=O)c2ccc(-c3ncc(F)cc3F)cc2)CC1 [HMC-N-02-B, 4-(3,5-Difluoropyridin-2-yl)-N-((1s,4s)-4-hydroxy-4-methylcyclohexyl)benzenesulfonamide] | 0.01 µM | 10.2 µM | 0.04 µM | 23% | – | –
9 | C[C@]1(O)CC[C@H](NS(=O)(=O)c2ccc(-c3c(F)cc(F)cc3F)cc2)CC1 [HMC-C-03-A, 2′,4′,6′-Trifluoro-N-((1r,4r)-4-hydroxy-4-methylcyclohexyl)biphenyl-4-sulfonamide] | 0.06 µM | 15 µM | 0.24 µM | 45% | – | –
10 | C[C@]1(O)CC[C@H](NS(=O)(=O)c2ccc(-c3ncc(F)cc3F)c(F)c2)CC1 [HMC-N-01-A, 4-(3,5-Difluoropyridin-2-yl)-3-fluoro-N-((1r,4r)-4-hydroxy-4-methylcyclohexyl)benzenesulfonamide] | 0.12 µM | 60 µM | 0.94 µM | 2% | – | –
11 | C[C@]1(O)CC[C@@H](NS(=O)(=O)c2ccc(-c3ccc(F)cc3F)c(F)c2)CC1 [HMC-C-04-B, 2,2′,4′-Trifluoro-N-((1s,4s)-4-hydroxy-4-methylcyclohexyl)-[1,1′-biphenyl]-4-sulfonamide] | – | – | – | – | – | 1589* ng·min/mL
12 | C[C@]1(O)CC[C@@H](NS(=O)(=O)c2ccc(-c3ccc(Cl)cc3C#N)cc2)CC1 [HMC-C-01-B, 4′-Chloro-2′-cyano-N-((1s,4s)-4-hydroxy-4-methylcyclohexyl)-[1,1′-biphenyl]-4-sulfonamide] | 0.005 µM | 4.82 µM | 0.08 µM | 74% | – | –
13 | C[C@]1(O)CC[C@H](NS(=O)(=O)c2ccc(-c3ncc(Cl)cc3Cl)c(F)c2)CC1 [HMC-N-04-A, 4-(3,5-Dichloropyridin-2-yl)-3-fluoro-N-((1r,4r)-4-hydroxy-4-methylcyclohexyl)benzenesulfonamide] | 0.12 µM | 30 µM | 0.47 µM | 26% | – | –
14 | C[C@]1(O)CC[C@H](NS(=O)(=O)c2ccc(-c3ccc(F)cc3F)c(F)c2)CC1 [HMC-C-04-A, 2,2′,4′-Trifluoro-N-((1r,4r)-4-hydroxy-4-methylcyclohexyl)-[1,1′-biphenyl]-4-sulfonamide] | – | – | – | 69% | – | –
15 | C[C@]1(O)CC[C@@H](NS(=O)(=O)c2ccc(-c3ncc(Cl)cc3Cl)cc2)CC1 [HMC-N-03-B, 4-(3,5-Dichloropyridin-2-yl)-N-((1s,4s)-4-hydroxy-4-methylcyclohexyl)benzenesulfonamide] | – | – | – | 47% | – | 1380* ng·min/mL
